The values below come from US20260258032A1, “TYROSINE KINASE 2 INHIBITORS AND USES THEREOF” (BIOGEN MA INC., priority 2022, published 2026).

Where a name gives a salt, the structure may show the parent alone.

In general, IC50 refers to the point on the concentration scale where inhibition reaches its midpoint. A lower IC50 goes with higher potency.

For the first assay, the target named is T1, JH2 domain of human Tyk2 (Homo sapiens, UniProt P29597).
T1 construct: 10×His-tagged TYK2 JH2 domain (amino acid 575-876)
T1 sequence (P29597 575-876): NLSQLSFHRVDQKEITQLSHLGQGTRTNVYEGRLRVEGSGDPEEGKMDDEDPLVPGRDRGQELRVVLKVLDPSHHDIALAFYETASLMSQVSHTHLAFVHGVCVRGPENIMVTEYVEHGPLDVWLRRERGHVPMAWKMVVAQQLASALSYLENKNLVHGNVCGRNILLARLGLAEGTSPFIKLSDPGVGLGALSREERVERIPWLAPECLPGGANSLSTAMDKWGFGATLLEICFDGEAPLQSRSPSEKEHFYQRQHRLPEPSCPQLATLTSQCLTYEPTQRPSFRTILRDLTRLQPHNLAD
Description: JH2 biochemical assay (TR-FRET probe displacement). It is filed as binding. The conditions noted are these: JH2 biochemical assay. As for the experimental part: The inhibitory potency of compounds of the disclosure against the kinase activity of recombinantly generated JH2 domain of human Tyk2 was evaluated in a plate-based assay using a TR-FRET assay platform. Briefly, 2 nM of recombinant JH2 domain [10×His-tagged TYK2 JH2 domain (amino acid 575-876)] was combined with 2 nM probe ((S)-6-amino-9-(2-carboxy-4-((1-(3-(8-methyl-5-(methylamino)-8H-imidazo[4,5-d]thiazolo[5,4-b]pyridin-2-yl)phenyl)ethyl)carbamoyl)phenyl)-3-iminio-5-sulfo-3H-xanthene-4-sulfonate), 0.1 nM Tb-labeled anti-His antibody, and compounds of disclosure for 60 minutes. Compounds are tested at either […] top concentration, 10 points of 3-fold dilution. The TR-FRET signal […] by compounds and signal was calculated by taking the ratio of fluorescence at 520 nm and 495 nm. The data was normalized and the percent activity versus log concentration of compound was fitted with a 4-parameter logistic model to generate IC50 curves.
Background: Time-resolved FRET reads energy transfer from a long-lived donor to a nearby acceptor.
`CC(=O)Nc1cc2c(cn1)C1(CCCC1)CN2c1ccnc(C(C)(F)F)n1` [Example 44, N-(1′-(2-(1,1-difluoroethyl)pyrimidin-4-yl)-1′,2′-dihydrospiro[cyclopentane-1,3′-pyrrolo[3,2-c]pyridin]-6′-yl)acetamide] gave an IC50 of 100 to 1000 nM.

On to `CCN1CC(Oc2cc(N3CC4(CC4)c4cnc(NC(C)=O)cc43)nc(C(C)(F)F)n2)C1` [Example 148, N-(1′-(2-(1,1-difluoroethyl)-6-((1-ethylazetidin-3-yl)oxy)pyrimidin-4-yl)-1′,2′-dihydrospiro[cyclopropane-1,3′-pyrrolo[3,2-c]pyridin]-6′-yl)acetamide trifluoroacetate], for which the half-inhibitory concentration (IC50) is at least 1000 nM.

Take `CC(=O)Nc1cc2c(cn1)C1(CC1)CN2c1cc(C)[nH]c(=O)n1` [Example 134, N-(1′-(6-methyl-2-oxo-1,2-dihydropyrimidin-4-yl)-1′,2′-dihydrospiro[cyclopropane-1,3′-pyrrolo[3,2-c]pyridin]-6′-yl)acetamide]: the IC50 is at least 1000 nM.

Regarding `CC(=O)Nc1cc2c(cn1)C1(CC1)CN2c1cc(C)nc(N2CC(C#N)(CF)C2)n1` [Example 218, N-(1′-(2-(3-cyano-3-(fluoromethyl)azetidin-1-yl)-6-methylpyrimidin-4-yl)-1′,2′-dihydrospiro[cyclopropane-1,3′-pyrrolo[3,2-c]pyridin]-6′-yl)acetamide], the IC50 is at most 10 nM.

On to `CC(=O)Nc1cc2c(cn1)C1(CC1)CN2c1cc(C)cc(-c2cnn(CC3CC3)c2)n1` [Example 266, N-(1′-(6-(1-(cyclopropylmethyl)-1H-pyrazol-4-yl)-4-methylpyridin-2-yl)-1′,2′-dihydrospiro[cyclopropane-1,3′-pyrrolo[3,2-c]pyridin]-6′-yl)acetamide trifluoroacetate], for which the concentration for half-maximal inhibition (IC50) is 10 to 100 nM.

The molecule `CC(=O)Nc1cc2c(cn1)C1(CC1)CN2c1cc(C)nc(C2CCCN(C)C2)n1` (stereo not shown) [Example 117, N-(1′-(6-methyl-2-(1-methylpiperidin-3-yl)pyrimidin-4-yl)-1′,2′-dihydrospiro[cyclopropane-1,3′-pyrrolo[3,2-c]pyridin]-6′-yl)acetamide] showed an IC50 of at least 1000 nM.

Molecule `CC(=O)Nc1cc2c(cn1)C1(CCNCC1)CN2c1nccc(C(C)(F)F)n1` [Example 270, N-(1′-(4-(1,1-difluoroethyl)pyrimidin-2-yl)-1′,2′-dihydrospiro[piperidine-4,3′-pyrrolo[3,2-c]pyridin]-6′-yl)acetamide] displayed an IC50 of at least 1000 nM.

`CC(=O)Nc1cc2c(cn1)C1(CC1)CN2c1cc(C)nc(C2CCN(C(C)C)CC2)n1` [Example 121, N-(1′-(2-(1-isopropylpiperidin-4-yl)-6-methylpyrimidin-4-yl)-1′,2′-dihydrospiro[cyclopropane-1,3′-pyrrolo[3,2-c]pyridin]-6′-yl)acetamide] registered an IC50 of at least 1000 nM.

Regarding `CC(=O)Nc1cc2c(cn1)CCN2c1cccc(C2CCOC2)n1` (stereo not shown) [Example 33, N-(1-(6-(tetrahydrofuran-3-yl)pyridin-2-yl)-2,3-dihydro-1H-pyrrolo[3,2-c]pyridin-6-yl)acetamide], the IC50 fell in the range of 10 to 100 nM.

`CC(=O)Nc1cc2c(cn1)C1(CC1)CN2c1ncc(C)s1` [Example 78, N-(1′-(5-methylthiazol-2-yl)-1′,2′-dihydrospiro[cyclopropane-1,3′-pyrrolo[3,2-c]pyridin]-6′-yl)acetamide trifluoroacetate] displayed an IC50 of 10 to 100 nM.

With `COC(C)(C)c1nccc(N2CC3(CC3)c3cnc(NC(C)=O)cc32)n1` [Example 132, N-(1′-(2-(2-methoxypropan-2-yl)pyrimidin-4-yl)-1′,2′-dihydrospiro[cyclopropane-1,3′-pyrrolo[3,2-c]pyridin]-6′-yl)acetamide], the IC50 fell in the range of 10 to 100 nM.

Consider `CC(=O)Nc1cc2c(cn1)C1(CC1)CN2c1cc(C)nc(C)n1` [Example 68, N-(1′-(2,6-dimethylpyrimidin-4-yl)-1′,2′-dihydrospiro[cyclopropane-1,3′-pyrrolo[3,2-c]pyridin]-6′-yl)acetamide], for which the IC50 fell in the range of 10 to 100 nM.

For `CC(=O)Nc1cc2c(cn1)C1(CC1)CN2c1cc(C)cc(-c2cn(C)nc2C(F)(F)F)n1` [Example 261, N-(1′-(4-methyl-6-(1-methyl-3-(trifluoromethyl)-1H-pyrazol-4-yl)pyridin-2-yl)-1′,2′-dihydrospiro[cyclopropane-1,3′-pyrrolo[3,2-c]pyridin]-6′-yl)acetamide trifluoroacetate], the half-maximal inhibitory concentration (IC50) was at least 1000 nM.

Turning to `CC(=O)Nc1cc2c(cn1)C1(CC1)CN2c1cc(O[C@@H]2COC[C@H]2F)nc(C(C)(F)F)n1` (racemic) [Example 150, Trans-rac-N-(1′-(2-(1,1-difluoroethyl)-6-(((3RS,4R)-4-fluorotetrahydrofuran-3-yl)oxy)pyrimidin-4-yl)-1′,2′-dihydrospiro[cyclopropane-1,3′-pyrrolo[3,2-c]pyridin]-6′-yl)acetamide trifluoroacetate], the half-maximal inhibitory concentration (IC50) lay within 10 to 100 nM.

The molecule `CC(=O)Nc1cc2c(cn1)C1(CC1)CN2c1nccs1` [Example 77, N-(1′-(thiazol-2-yl)-1′,2′-dihydrospiro[cyclopropane-1,3′-pyrrolo[3,2-c]pyridin]-6′-yl)acetamide trifluoroacetate] returned an IC50 of 100 to 1000 nM.

Molecule `CC(=O)Nc1cc2c(cn1)C1(CC1)CN2c1nc(C)cc(=O)[nH]1` [Example 135, N-(1′-(4-methyl-6-oxo-1,6-dihydropyrimidin-2-yl)-1′,2′-dihydrospiro[cyclopropane-1,3′-pyrrolo[3,2-c]pyridin]-6′-yl)acetamide] had an IC50 of at least 1000 nM.

`CC(=O)Nc1cc2c(cn1)C1(CC1)CN2c1cc(C)nc2cc(C)nn12` [Example 28, N-(1′-(2,5-dimethylpyrazolo[1,5-a]pyrimidin-7-yl)-1′,2′-dihydrospiro[cyclopropane-1,3′-pyrrolo[3,2-c]pyridin]-6′-yl)acetamide] had an IC50 of at least 1000 nM.

`CC(=O)Nc1cc2c(cn1)C1(CCOCC1)CN2c1ccnc(C(C)(F)F)n1` [Example 47, N-(1′-(2-(1,1-difluoroethyl)pyrimidin-4-yl)-1′,2,2′,3,5,6-hexahydrospiro[pyran-4,3′-pyrrolo[3,2-c]pyridin]-6′-yl)acetamide] registered an IC50 of at least 1000 nM.

`CC(=O)Nc1cc2c(cn1)C1(CCNCC1)CN2c1cccc(C(C)(F)F)n1` [Example 272, N-(1′-(6-(1,1-difluoroethyl)pyridin-2-yl)-1′,2′-dihydrospiro[piperidine-4,3′-pyrrolo[3,2-c]pyridin]-6′-yl)acetamide] came in with an IC50 of at least 1000 nM.

The molecule `CC(=O)Nc1cc2c(cn1)C1(CC1)CN2c1cc(C)ncn1` [Example 27, N-(1′-(6-methylpyrimidin-4-yl)-1′,2′-dihydrospiro[cyclopropane-1,3′-pyrrolo[3,2-c]pyridin]-6′-yl)acetamide] came in with an IC50 of 10 to 100 nM.

Take `CC(=O)Nc1cc2c(cn1)C1(CC1)CN2c1cc(C)nc(C2CC3CCC2O3)n1` (stereo not shown) [Example 102, N-(1′-(2-(7-oxabicyclo[2.2.1]heptan-2-yl)-6-methylpyrimidin-4-yl)-1′,2′-dihydrospiro[cyclopropane-1,3′-pyrrolo[3,2-c]pyridin]-6′-yl)acetamide trifluoroacetate]: the IC50 lay in the range of 10 to 100 nM.

Regarding `CC(=O)Nc1cc2c(cn1)C1(CCNCC1)CN2c1ccnc(C(C)(F)F)n1` [Example 271, N-(1′-(2-(1,1-difluoroethyl)pyrimidin-4-yl)-1′,2′-dihydrospiro[piperidine-4,3′-pyrrolo[3,2-c]pyridin]-6′-yl)acetamide], the IC50 was at least 1000 nM.

The molecule `CC(=O)Nc1cc2c(cn1)C1(CC1)CN2c1cc(NC(C)=O)nc(C(C)(F)F)n1` [Example 15, N-(1′-(6-acetamido-2-(1,1-difluoroethyl)pyrimidin-4-yl)-1′,2′-dihydrospiro[cyclopropane-1,3′-pyrrolo[3,2-c]pyridin]-6′-yl)acetamide] yielded an IC50 of at most 10 nM.

As to `COC1CCCN(c2nc(C)cc(N3CC4(CC4)c4cnc(NC(C)=O)cc43)n2)C1` (stereo not shown) [Example 230, N-(1′-(2-(3-methoxypiperidin-1-yl)-6-methylpyrimidin-4-yl)-1′,2′-dihydrospiro[cyclopropane-1,3′-pyrrolo[3,2-c]pyridin]-6′-yl)acetamide], the IC50 was 100 to 1000 nM.

For `CC(=O)Nc1cc2c(cn1)CCN2c1ccnc(C(C)(F)F)n1` [Example 30, N-(1-(2-(1,1-difluoroethyl)pyrimidin-4-yl)-2,3-dihydro-1H-pyrrolo[3,2-c]pyridin-6-yl)acetamide], the IC50 lay in the range of 100 to 1000 nM.

`COc1ccc(-c2cc(C)cc(N3CC4(CC4)c4cnc(NC(C)=O)cc43)n2)cn1` [Example 267, N-(1′-(6′-methoxy-4-methyl-[2,3′-bipyridin]-6-yl)-1′,2′-dihydrospiro[cyclopropane-1,3′-pyrrolo[3,2-c]pyridin]-6′-yl)acetamide trifluoroacetate] yielded an IC50 of 100 to 1000 nM.

Take `CC(=O)Nc1cc2c(cn1)C1(CC1C)CN2c1nccc(C(C)(F)F)n1` (stereo not shown) [Example 36, N-(1′-(4-(1,1-difluoroethyl)pyrimidin-2-yl)-2-methyl-1′,2′-dihydrospiro[cyclopropane-1,3′-pyrrolo[3,2-c]pyridin]-6′-yl)acetamide]: the IC50 was 10 to 100 nM.

The assay is the same for the next values; noted with them: TR-FRET probe displacement, JH2 domain of human Tyk2.
`CC(=O)Nc1cc2c(cn1)C1(CC1)CN2c1cc(-c2cnn(CC#N)c2)nc(C(C)(F)F)n1` [Example 393, N-(1′-(6-(1-(cyanomethyl)-1H-pyrazol-4-yl)-2-(1,1-difluoroethyl)pyrimidin-4-yl)-1′,2′-dihydrospiro[cyclopropane-1,3′-pyrrolo[3,2-c]pyridin]-6′-yl)acetamide] showed an IC50 of at most 10 nM.
